Measured values as given in PMC8424369 (Journal of Pharmaceutical Analysis, 2020).

Assays:
[1] = Stability of QC samples in transport medium; format: physicochemical; conditions: HBSS, n=3
Caco-2 cell monolayer = experiment: Bidirectional transport experiments on Caco-2 cell monolayer model; format: in vitro ADME, human; conditions: for Papp(AP-BL): AP to BL; for Papp(AP-BL) / Recovery (%) BL-AP / Papp(BL-AP) / ER (efflux ratio, Papp(BL-AP)/Papp(AP-BL)): donor 10 μM, 3 h; for Papp(AP-BL) / Recovery (%) BL-AP / Papp(BL-AP): 37 °C; for Papp(AP-BL) / Papp(BL-AP): single time point, mean ± S.D. (n=3); for Recovery (%) BL-AP / Papp(BL-AP): BL to AP; for Intestinal absorption / transport mechanism speculated from ER: comparison of Papp in two directions
[2] = as above; format: in vitro ADME, human; conditions: human, donor 10 μM, 3 h
[3] = high QC conc. (SSs 100, SGF 1000, SGD 800, SGG 2200 nM)
[4] = low QC conc. (SSs 1, SGF 10, SGD 8, SGG 22 nM)
[5] = middle QC conc. (SSs 10, SGF 100, SGD 80, SGG 220 nM)

## C[C@H]1O[C@@H](O[C@H]2CC[C@@]3(C)[C@@H](CC[C@]4(C)[C@@H]3C=CC3=C5CC(C)(C)CC[C@]5(CO)[C@H](O)C[C@]34C)[C@]2(C)CO)[C@H](O)[C@@H](O[C@@H]2O[C@H](CO)[C@@H](O)[C@H](O)[C@H]2O)[C@H]1O [SSb2]
[1]; [3]
  Stability, Autosampler (4 °C for 8 h), RE (%): 5.11%
  Stability, Bench-top (room temperature for 6 h), RE (%): −0.27%
  Stability, Freeze-thaw (three cycles at −80 °C), RE (%): 8.34%
  Stability, Processed samples (−80 °C for 8 h), RE (%): 4.04%
[1]; [4]
  Stability, Autosampler (4 °C for 8 h), RE (%): 0.92%
  Stability, Bench-top (room temperature for 6 h), RE (%): 0.01%
  Stability, Freeze-thaw (three cycles at −80 °C), RE (%): 2.62%
  Stability, Processed samples (−80 °C for 8 h), RE (%): 3.52%
[1]; [5]
  Stability, Autosampler (4 °C for 8 h), RE (%): 0.35%
  Stability, Bench-top (room temperature for 6 h), RE (%): 5.34%
  Stability, Freeze-thaw (three cycles at −80 °C), RE (%): 3.06%
  Stability, Processed samples (−80 °C for 8 h), RE (%): 6.93%
Caco-2 cell monolayer
  Papp(AP-BL): 0.051 ± 0.010 × 10^−6 cm/s
  Recovery (%) BL-AP: 68.12%
  Papp(BL-AP): 0.055 ± 0.011 × 10^−6 cm/s
  Intestinal absorption / transport mechanism speculated from ER: passive transport
  ER (efflux ratio, Papp(BL-AP)/Papp(AP-BL)): 1.09

## C[C@H]1O[C@@H](O[C@H]2CC[C@@]3(C)[C@@H](CC[C@]4(C)[C@@H]3C=C[C@]35OC[C@@]6(CCC(C)(C)C[C@H]63)[C@@H](O)C[C@]54C)[C@]2(C)CO)[C@H](O)[C@@H](O[C@@H]2O[C@H](CO)[C@@H](O)[C@H](O)[C@H]2O)[C@H]1O [SSa]
[1]; [3]
  Stability, Autosampler (4 °C for 8 h), RE (%): −1.88%
  Stability, Bench-top (room temperature for 6 h), RE (%): 0.62%
  Stability, Freeze-thaw (three cycles at −80 °C), RE (%): 1.36%
  Stability, Processed samples (−80 °C for 8 h), RE (%): −1.50%
[1]; [4]
  Stability, Autosampler (4 °C for 8 h), RE (%): −3.60%
  Stability, Bench-top (room temperature for 6 h), RE (%): −1.06%
  Stability, Freeze-thaw (three cycles at −80 °C), RE (%): −7.46%
  Stability, Processed samples (−80 °C for 8 h), RE (%): −10.40%
[1]; [5]
  Stability, Autosampler (4 °C for 8 h), RE (%): 0.91%
  Stability, Bench-top (room temperature for 6 h), RE (%): 2.00%
  Stability, Freeze-thaw (three cycles at −80 °C), RE (%): 8.65%
  Stability, Processed samples (−80 °C for 8 h), RE (%): 2.87%
Caco-2 cell monolayer
  Intestinal absorption / transport mechanism speculated from ER: passive transport
[2]; Caco-2, ER (efflux ratio, Papp(BL-AP)/Papp(AP-BL))
  efflux ratio at 3 h, 10 μM: 1.15
[2]; Caco-2, Papp(AP-BL), AP to BL, 37 °C, single time point, mean ± S.D. (n=3)
  Papp A→B at 3 h, 10 μM: 0.088 ± 0.014 ×10⁻⁶ cm/s
[2]; Caco-2, Papp(BL-AP), BL to AP, 37 °C, single time point, mean ± S.D. (n=3)
  Papp B→A at 3 h, 10 μM: 0.102 ± 0.031 ×10⁻⁶ cm/s
[2]; Caco-2, Recovery (%) BL-AP, BL to AP, 37 °C
  recovery at 3 h, 10 μM: 77.6%

## C[C@H]1O[C@@H](O[C@H]2CC[C@@]3(C)[C@@H](CC[C@]4(C)[C@@H]3C=C[C@]35OC[C@@]6(CCC(C)(C)C[C@H]63)[C@H](O)C[C@]54C)[C@]2(C)CO)[C@H](O)[C@@H](O[C@@H]2O[C@H](CO)[C@@H](O)[C@H](O)[C@H]2O)[C@H]1O [SSd]
[1]; [3]
  Stability, Autosampler (4 °C for 8 h), RE (%): −0.92%
  Stability, Bench-top (room temperature for 6 h), RE (%): −8.09%
  Stability, Freeze-thaw (three cycles at −80 °C), RE (%): 12.04%
  Stability, Processed samples (−80 °C for 8 h), RE (%): −5.31%
[1]; [4]
  Stability, Autosampler (4 °C for 8 h), RE (%): −5.69%
  Stability, Bench-top (room temperature for 6 h), RE (%): 0.83%
  Stability, Freeze-thaw (three cycles at −80 °C), RE (%): −1.11%
  Stability, Processed samples (−80 °C for 8 h), RE (%): 1.51%
[1]; [5]
  Stability, Autosampler (4 °C for 8 h), RE (%): −0.46%
  Stability, Bench-top (room temperature for 6 h), RE (%): 8.37%
  Stability, Freeze-thaw (three cycles at −80 °C), RE (%): 5.76%
  Stability, Processed samples (−80 °C for 8 h), RE (%): −0.37%
Caco-2 cell monolayer
  Papp(AP-BL): 0.312 ± 0.020 × 10^−6 cm/s
  Recovery (%) BL-AP: 68.96%
  Papp(BL-AP): 0.079 ± 0.012 × 10^−6 cm/s
  Intestinal absorption / transport mechanism speculated from ER: certain uptake transporters were probably involved
  ER (efflux ratio, Papp(BL-AP)/Papp(AP-BL)): 0.25
